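Growth conditions: 96-well plates. Treatment: test compound, 48 hours, 5 concentrations. Analysis: linear interpolation between bracketing concentrations; unreached endpoints set to highest concentration. The concentration for 50% growth inhibition is given as GI50. TGI is the concentration that stops growth completely.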
How the values were obtained:
Test in all cases: inhibition of tumour cell growth, NCI panel, 48 h
LOX IMVI melanoma = tested on: LOX IMVI melanoma
K-562 leukemia = tested on: K-562 leukemia
IGROV1 ovarian = tested on: IGROV1 ovarian
NCI/ADR-RES ovarian = tested on: NCI/ADR-RES ovarian
MCF7 breast = tested on: MCF7 breast
COLO 205 colon = tested on: COLO 205 colon
HOP-92 NSCLC = tested on: HOP-92 NSCLC
UO-31 renal = tested on: UO-31 renal
OVCAR-4 ovarian = tested on: OVCAR-4 ovarian
RPMI-8226 leukemia = tested on: RPMI-8226 leukemia
SF-539 CNS = tested on: SF-539 CNS
SF-268 CNS = tested on: SF-268 CNS
BT-549 breast = tested on: BT-549 breast
OVCAR-8 ovarian = tested on: OVCAR-8 ovarian
NCI-H522 lung = tested on: NCI-H522 lung
CCRF-CEM leukemia = tested on: CCRF-CEM leukemia
HT29 colon = tested on: HT29 colon
NCI-H23 lung = tested on: NCI-H23 lung
MALME-3M melanoma = tested on: MALME-3M melanoma
PC-3 prostate = tested on: PC-3 prostate
SW-620 colon = tested on: SW-620 colon
HOP-62 NSCLC = tested on: HOP-62 NSCLC
OVCAR-5 ovarian = tested on: OVCAR-5 ovarian
RXF 393 renal = tested on: RXF 393 renal
HS 578T breast = tested on: HS 578T breast
MDA-MB-435 = tested on: MDA-MB-435
SK-MEL-2 melanoma = tested on: SK-MEL-2 melanoma
SF-295 CNS = tested on: SF-295 CNS
A498 renal = tested on: A498 renal
SNB-75 CNS = tested on: SNB-75 CNS
786-0 renal = tested on: 786-0 renal
SNB-19 CNS = tested on: SNB-19 CNS
NCI-H226 lung = tested on: NCI-H226 lung
TK-10 renal = tested on: TK-10 renal
SK-MEL-28 melanoma = tested on: SK-MEL-28 melanoma
HCT-15 colon = tested on: HCT-15 colon
OVCAR-3 ovarian = tested on: OVCAR-3 ovarian
UACC-62 melanoma = tested on: UACC-62 melanoma
CAKI-1 renal = tested on: CAKI-1 renal
SK-OV-3 ovarian = tested on: SK-OV-3 ovarian
T-47D breast = tested on: T-47D breast
A549 NSCLC = tested on: A549 NSCLC
ACHN renal = tested on: ACHN renal
MOLT-4 leukemia = tested on: MOLT-4 leukemia
KM12 colon = tested on: KM12 colon
SN12C renal = tested on: SN12C renal
SR leukemia = tested on: SR leukemia
HCC-2998 colon = tested on: HCC-2998 colon
M14 melanoma = tested on: M14 melanoma
DU-145 prostate = tested on: DU-145 prostate
SK-MEL-5 melanoma = tested on: SK-MEL-5 melanoma
MDA-MB-231 breast = tested on: MDA-MB-231 breast
NCI-H460 lung = tested on: NCI-H460 lung
HCT-116 colon = tested on: HCT-116 colon
EKVX NSCLC = tested on: EKVX NSCLC
U251 CNS = tested on: U251 CNS
UACC-257 melanoma = tested on: UACC-257 melanoma
HL-60(TB) leukemia = tested on: HL-60(TB) leukemia

Which GI50 (LOX IMVI melanoma) does the source give for `COC(=O)c1c2c(c(C)[n+]([O-])c1C)C(=O)C=C(NCc1cccc(Cl)c1)C2=O` here?
The GI50 was 0.0687 µM.

And the TGI (LOX IMVI melanoma)?
Its TGI is 1.35 µM.

What about the GI50 (K-562 leukemia) of the same compound?
The GI50 was 0.085 µM.

What about the TGI (K-562 leukemia) of the same compound?
The TGI was over 30.2 µM.

What about the GI50 (IGROV1 ovarian) of the same compound?
Its GI50 is 0.221 µM.

And the TGI (IGROV1 ovarian)?
Its TGI is 1.09 µM.

And the GI50 (NCI/ADR-RES ovarian)?
The GI50 was 0.307 µM.

What about the TGI (NCI/ADR-RES ovarian) of the same compound?
The TGI was 1.79 µM.

What about the GI50 (MCF7 breast) of the same compound?
Its GI50 is 0.238 µM.

What about the TGI (MCF7 breast) of the same compound?
The TGI was 0.766 µM.

What about the GI50 (COLO 205 colon) of the same compound?
Its GI50 is 0.292 µM.

What about the TGI (COLO 205 colon) of the same compound?
The TGI was 0.961 µM.

And the GI50 (HOP-92 NSCLC)?
The GI50 was 1.81 µM.

What about the TGI (HOP-92 NSCLC) of the same compound?
The TGI was 4.1 µM.

And the GI50 (UO-31 renal)?
The GI50 was 1.09 µM.

What about the TGI (UO-31 renal) of the same compound?
Its TGI is 2.35 µM.

And the GI50 (OVCAR-4 ovarian)?
The GI50 was 0.21 µM.

What about the TGI (OVCAR-4 ovarian) of the same compound?
Its TGI is 0.938 µM.

And the GI50 (RPMI-8226 leukemia)?
Its GI50 is 0.86 µM.

What about the TGI (RPMI-8226 leukemia) of the same compound?
The TGI was 4.28 µM.

What about the GI50 (SF-539 CNS) of the same compound?
Its GI50 is 0.525 µM.

And the TGI (SF-539 CNS)?
The TGI was 1.49 µM.

And the GI50 (SF-268 CNS)?
Its GI50 is 0.737 µM.

What about the TGI (SF-268 CNS) of the same compound?
The TGI was 3.15 µM.

What about the GI50 (BT-549 breast) of the same compound?
Its GI50 is 1.26 µM.

What about the TGI (BT-549 breast) of the same compound?
Its TGI is 2.63 µM.

And the GI50 (OVCAR-8 ovarian)?
The GI50 was 0.275 µM.

And the TGI (OVCAR-8 ovarian)?
The TGI was 1.21 µM.

What about the GI50 (NCI-H522 lung) of the same compound?
Its GI50 is 0.261 µM.

And the TGI (NCI-H522 lung)?
The TGI was 1.7 µM.

And the GI50 (CCRF-CEM leukemia)?
The GI50 was 0.444 µM.

What about the GI50 (HT29 colon) of the same compound?
The GI50 was 0.31 µM.

What about the GI50 (NCI-H23 lung) of the same compound?
Its GI50 is 0.463 µM.

And the TGI (NCI-H23 lung)?
The TGI was 2.54 µM.

And the GI50 (MALME-3M melanoma)?
The GI50 was 0.136 µM.

And the TGI (MALME-3M melanoma)?
The TGI was 0.309 µM.

And the GI50 (PC-3 prostate)?
Its GI50 is 0.257 µM.

And the TGI (PC-3 prostate)?
Its TGI is 2.6 µM.

What about the GI50 (SW-620 colon) of the same compound?
The GI50 was 0.244 µM.

And the TGI (SW-620 colon)?
Its TGI is 1.23 µM.

And the GI50 (HOP-62 NSCLC)?
Its GI50 is 1.13 µM.

What about the TGI (HOP-62 NSCLC) of the same compound?
The TGI was 2.8 µM.

And the GI50 (OVCAR-5 ovarian)?
The GI50 was 1.18 µM.

What about the TGI (OVCAR-5 ovarian) of the same compound?
Its TGI is 2.57 µM.

And the GI50 (RXF 393 renal)?
The GI50 was 1.2 µM.

And the TGI (RXF 393 renal)?
Its TGI is 2.53 µM.

What about the GI50 (HS 578T breast) of the same compound?
Its GI50 is 1.77 µM.

And the TGI (HS 578T breast)?
Its TGI is 6.79 µM.

And the GI50 (MDA-MB-435)?
Its GI50 is 0.116 µM.

What about the TGI (MDA-MB-435) of the same compound?
The TGI was 0.251 µM.

And the GI50 (SK-MEL-2 melanoma)?
The GI50 was 1.04 µM.

And the TGI (SK-MEL-2 melanoma)?
Its TGI is 2.77 µM.

And the GI50 (SF-295 CNS)?
The GI50 was 0.422 µM.

What about the TGI (SF-295 CNS) of the same compound?
Its TGI is 1.66 µM.

What about the GI50 (A498 renal) of the same compound?
Its GI50 is 1.21 µM.

And the TGI (A498 renal)?
The TGI was 2.46 µM.

What about the GI50 (SNB-75 CNS) of the same compound?
Its GI50 is 1.64 µM.

And the TGI (SNB-75 CNS)?
Its TGI is 3.01 µM.

And the GI50 (786-0 renal)?
The GI50 was 1.44 µM.

What about the TGI (786-0 renal) of the same compound?
The TGI was 3.64 µM.

What about the GI50 (SNB-19 CNS) of the same compound?
The GI50 was 1.01 µM.

And the TGI (SNB-19 CNS)?
The TGI was 2.18 µM.

And the GI50 (NCI-H226 lung)?
Its GI50 is 1.41 µM.

What about the TGI (NCI-H226 lung) of the same compound?
The TGI was 3.55 µM.

And the GI50 (TK-10 renal)?
The GI50 was 2.43 µM.

What about the TGI (TK-10 renal) of the same compound?
Its TGI is 6.52 µM.

What about the GI50 (SK-MEL-28 melanoma) of the same compound?
The GI50 was 0.716 µM.

And the TGI (SK-MEL-28 melanoma)?
Its TGI is 2.09 µM.

And the GI50 (HCT-15 colon)?
Its GI50 is 0.205 µM.

And the TGI (HCT-15 colon)?
Its TGI is 1.52 µM.

And the GI50 (OVCAR-3 ovarian)?
The GI50 was 0.221 µM.

What about the TGI (OVCAR-3 ovarian) of the same compound?
Its TGI is 0.665 µM.

What about the GI50 (UACC-62 melanoma) of the same compound?
The GI50 was 0.0741 µM.

And the TGI (UACC-62 melanoma)?
The TGI was 0.459 µM.

What about the GI50 (CAKI-1 renal) of the same compound?
Its GI50 is 0.204 µM.

And the TGI (CAKI-1 renal)?
The TGI was 1.95 µM.

And the GI50 (SK-OV-3 ovarian)?
Its GI50 is 1.92 µM.

What about the TGI (SK-OV-3 ovarian) of the same compound?
Its TGI is 5.14 µM.

What about the GI50 (T-47D breast) of the same compound?
The GI50 was 0.187 µM.

What about the TGI (T-47D breast) of the same compound?
Its TGI is 1.71 µM.

And the GI50 (A549 NSCLC)?
Its GI50 is 0.462 µM.

What about the TGI (A549 NSCLC) of the same compound?
The TGI was 2.22 µM.

What about the GI50 (ACHN renal) of the same compound?
Its GI50 is 0.661 µM.

And the TGI (ACHN renal)?
The TGI was 2.04 µM.

What about the GI50 (MOLT-4 leukemia) of the same compound?
The GI50 was 0.505 µM.

And the TGI (MOLT-4 leukemia)?
The TGI was 1.89 µM.

What about the GI50 (KM12 colon) of the same compound?
Its GI50 is 0.2 µM.

And the TGI (KM12 colon)?
The TGI was 1.69 µM.

What about the GI50 (SN12C renal) of the same compound?
Its GI50 is 0.298 µM.

And the TGI (SN12C renal)?
Its TGI is 1.02 µM.

And the GI50 (SR leukemia)?
Its GI50 is 0.35 µM.

And the TGI (SR leukemia)?
The TGI was 6.64 µM.

And the GI50 (HCC-2998 colon)?
The GI50 was 0.329 µM.

And the TGI (HCC-2998 colon)?
Its TGI is 1.42 µM.

What about the GI50 (M14 melanoma) of the same compound?
Its GI50 is 0.28 µM.

What about the TGI (M14 melanoma) of the same compound?
The TGI was 1.56 µM.

And the GI50 (DU-145 prostate)?
Its GI50 is 0.821 µM.

What about the TGI (DU-145 prostate) of the same compound?
The TGI was 2.18 µM.

What about the GI50 (SK-MEL-5 melanoma) of the same compound?
The GI50 was 0.167 µM.

What about the TGI (SK-MEL-5 melanoma) of the same compound?
The TGI was 0.316 µM.

What about the GI50 (MDA-MB-231 breast) of the same compound?
Its GI50 is 0.261 µM.

And the TGI (MDA-MB-231 breast)?
The TGI was 2.77 µM.

What about the GI50 (NCI-H460 lung) of the same compound?
Its GI50 is 0.381 µM.

And the TGI (NCI-H460 lung)?
Its TGI is 1.6 µM.

And the GI50 (HCT-116 colon)?
Its GI50 is 0.284 µM.

What about the TGI (HCT-116 colon) of the same compound?
The TGI was 0.976 µM.

And the GI50 (EKVX NSCLC)?
Its GI50 is 0.762 µM.

And the TGI (EKVX NSCLC)?
The TGI was 2.15 µM.

What about the GI50 (U251 CNS) of the same compound?
The GI50 was 0.367 µM.

What about the TGI (U251 CNS) of the same compound?
The TGI was 1.55 µM.

What about the GI50 (UACC-257 melanoma) of the same compound?
Its GI50 is 0.234 µM.

What about the TGI (UACC-257 melanoma) of the same compound?
Its TGI is 0.725 µM.

What about the GI50 (HL-60(TB) leukemia) of the same compound?
Its GI50 is 0.287 µM.

And the TGI (HL-60(TB) leukemia)?
Its TGI is 0.935 µM.
